Test results taken from PMC4091617 (Chemical communications (Cambridge, England), 2011).

Target: T1, DhpI (Streptomyces luridus, UniProt D7PC21)
T1 sequence (D7PC21 1-218): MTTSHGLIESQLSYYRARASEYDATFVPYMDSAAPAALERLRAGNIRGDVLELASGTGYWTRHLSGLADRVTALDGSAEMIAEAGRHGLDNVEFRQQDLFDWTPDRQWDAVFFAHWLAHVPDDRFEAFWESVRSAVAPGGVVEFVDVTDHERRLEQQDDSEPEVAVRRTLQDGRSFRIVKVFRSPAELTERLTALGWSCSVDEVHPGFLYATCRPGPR
Test: in vitro O-methylation
Assay type: biochemical
Conditions: SAM as methyl donor; Pfs present

Q: With `CC(=O)N(O)CCCP(=O)(O)O` [FR-900098] as the compound, how does the “in vitro O-methylation” value read?
A: These four phosphonates were used as the basis; each was methylated by DhpI
